The values below come from patent publication US8309536B2, “Implant improving local bone formation” (priority 2005, dated 2012).

Values joined by “and” are separate entries in the source; they are usually repeats but may differ in a detail not shown here. Equal entries are not always repeated. A value given as a limit tells only on which side of the number the result lay.

One series relates to distraction osteogenesis. The settings on record: cited from earlier work.
Series [1] is described as follows: ZA elution from porous tantalum implants in saline, assayed by UV spectrophotometry. The series is classed as physicochemical. The settings on record: for percent of the ZA released: HA-coated implant dosed with 0.05 mg ZA. The source says:
Assay of ZA Elution. Assays of ZA in solution were achieved using UV spectrophotometry. Bisphosphonates on their own lack a detectable chromophore, making them difficult to assay by simple conventional analytical methods. However, the metal chelating properties of bisphosphonates are well known. When bisphosphonates complex with certain metal ions, a chromophore with suitable. UV activity for spectrophotometric analysis is created (Ostovic D, Stelmach C, Hulshizer B. Pharmaceutical Research. 10:470-472, 1993). The method for assaying ZA in aqueous-based solutions is based on the formation of a ZA complex with iron (III) ions (Kuljanin J, Jankovic I, Nedeljkovic J, Prstojevic D, Marinkovic V. Journal of Pharmaceutical and Biomedical Analysis. 28:1215-1220, 2002). Of the three components in the prescription drug Zometa™ (ZA, mannitol, and sodium citrate), only ZA forms a complex with iron (III) ions. A standard solution of iron (III) chloride in perchloric acid is added to known concentrations of Zometa™ and the absorbance is measured at 290 nm to create a calibration curve. A highly acidic medium is needed to prevent the hydrolysis of the iron (III) ions. Aliquots of the soak solution from the Zometa™-coated implants can be analyzed by adding the standard iron (III) chloride solution to the soak solution and measuring the absorbance at 290 nm. By measuring the absorbance, the concentration of the sample can be calculated and thus the mass of the drug released from the implant for a given time period can be determined.
Four porous tantalum implants with and without HA coating were deposited with 0.05 mg of ZA as described. For each implant group, elution characteristics were ascertained by immersing each implant in a test tube containing 5 ml of 0.9% saline at […]. At mutiple test intervals (1 min, 3 min, 5 min, 10 min, 15 min, 30 min, 1 hr, 6 hrs, 12 hrs, 1 day, 3 days, 7 days, 14 days, 21 days, 42 days, 84 days, and 98 days), the implant was removed from the test tube, the saline was thoroughly mixed, and aliquots were removed for ZA assays using UV spectrophotometry. After each time interval for each implant, the implant was placed in a test tube with fresh replacement of 5 ml of saline. This elution model avoided build up of boundary layers and more closely resembled a dynamic system. The 84-day assay time corresponded to the 12 week length of the in vivo implant studies. Assays ceased once the total amount of ZA was released.

Series [2] has as its system canine ulnar intramedullary implant model. The series is described as follows: Canine ulnar intramedullary implant model, HA coated porous tantalum implants dosed with ZA (local delivery), 12 weeks, quantitative histology. It counts as in vivo, dog. The source says: In Vivo Studies. The previously described canine ulnar intramedullary implant model was utilized (study approved by institutional review board) (Bobyn J D, Tanzer M, Harvey EJ, Krygier JJ, Little DG. J Bone Joint Surg (Br), In press, 2005). The surgical procedure involved anesthetizing the dog with a general anesthesia and under sterile conditions exposing the proximal ulna. A two-centimeter incision was made over the olecranon process and the triceps tendon was split by sharp dissection down to bone. Under fluoroscopic guidance, a 5.0 mm drill was oriented along the long axis of the ulna and in line with the intramedullary canal. A 5.5 cm long hole was drilled under fluoroscopy to ensure the proper orientation of the drill hole and to prevent cortical penetration. The porous implant was then tapped down the intramedullary canal of the ulna with a punch and mallet. The implant was slightly countersunk to avoid postoperative irritation of the overlying triceps tendon. The wound was irrigated and closed in a standard fashion. The procedure was repeated on the contralateral side. Positioning of the implants inevitably varied somewhat in terms of depth of insertion within the canal and spatial orientation within the canal. […] Each dog received either two control HA coated implants without ZA or two HA coated implants dosed with 0.05 mg ZA. Five control dogs and four with ZA-dosed implants were studied at 12 weeks. This protocol was utilized instead of one with a control and a ZA-dosed implant in each animal because it avoided the possibility of systemic absorption of ZA from one side and influence of a control implant on the other side.
Histological examination. After sacrifice, the ulnae were harvested, stripped of soft tissue, radiographed and processed for undecalcified hard-section histology (FIG. 6). This involved dehydration in ascending solutions of ethanol, defatting in ether and acetone, and embedding in methylmethacrylate. Each implant was cut transversely into 6 or 7 sections at 7-8 mm intervals. The sections were radiographed and polished, sputter coated with gold-palladium, and imaged with backscattered scanning electron microscopy. For each section, computerized image analysis based on grey level discrimination was used to identify bone and implant and to generate quantitative information on the extent of bone ingrowth, defined as the percentage of the available porosity that was filled with new bone. Also tabulated in each section was the number and size of the individual islands of bone within the implant pores. In sections cut through the ulnar diaphysis, where delineation of the endosteal cortex was clearly evident, the total area of peri-implant bone contained within the intramedullary canal was also tabulated. In these calculations the implant area (and bone within) was not included. For each section, the peri-implant bone was expressed as a percentage of the total peri-implant area within the intramedullary canal (not including the implant).
Statistical analysis. The quantitative histological data were statistically analyzed using multiple two-level hierarchical models. At the first level of the model, the set of results from the limbs of each dog was assumed to follow a normal distribution with dog-specific means and a global variance parameter. At the second level of the model, the means from each dog in each group (control, ZA-dosed) from the first level followed a second normal distribution, with the mean representing the overall mean for the treatment or control groups and the variance representing the variability within the group. A similar statistical model was also run where the results for each dog were allowed to vary with the distance (section level) along the ulna. […] The mean values and differences between means for control and ZA-dosed implants were estimated with 95% confidence intervals (CI).

Series [3] has the same test system. Kind of series: Canine ulnar intramedullary implant model, single intravenous dose of ZA, porous tantalum rods implanted for 6 weeks. It counts as in vivo. Here is the method:
The hypothesis that bisphosphonates have a positive effect on net bone growth, particularly into porous implants, was first confirmed by conducting a canine ulnar intramedullary implant model in which porous tantalum rods were implanted for 6 weeks. (Bobyn J D, Tanzer M, Harvey EJ, Krygier JJ, Little DG. J Bone Joint Surg (Br), 2005) Immediately after surgery, seven test animals with 14 ulnar implants were administered a single intravenous dose of 0.1 mg/kg ZA (Novartis Pharma A G, Basel, Switzerland). Because of the systemic exposure of test animals to ZA it was necessary to utilize external control data from a prior experiment (Tanzer M, Kantor S, Bobyn J D. J Arthrop 19:195-199, 2002) for comparisons of bone ingrowth. The mean extent of bone ingrowth was 6.6% for the control implants and 12.2% for the ZA-treated implants, a relative difference of 85% that was statistically significant.

Series [4] has the same test system. The series is described as follows: Canine ulnar intramedullary implant model, HA coated porous tantalum implants dosed with ZA (local delivery), 12 weeks, quantitative histology. The series is classed as in vivo, dog. The following applies: total ZA doses of 0.2 mg and 0.4 mg, relative to 0.05 mg.
In a further series the test system is bone resorption. The settings on record: cited from earlier work; for potency at inhibiting bone resorption relative to second generation bisphosphonates (in words): third generation bisphosphonates which contain a tertiary nitrogen.
In series [5] the test system is murine (MC3T3) osteoblastic cells. The following applies: Peter et al 2004; cited from earlier work.
Series [6] concerns human (MG-63) osteoblastic cells. The settings on record: Peter et al 2004; cited from earlier work.
The next series has as its system regenerate bone / callus. The settings on record: Smith et al 2003; net bone accumulation due to increased retention of callus; cited from earlier work.
For series [7], the system named is knee prostheses migration. The settings on record: early postoperative oral regimen, radiostereometry; cited from earlier work.
The test system of the next series is alveolar bone resorption. The following applies: local application following periodontal surgery in rats; cited from earlier work.
For series [8], the system named is soft tissue formation at implant site. The settings on record: single application via a sponge to an implant site, rat; cited from earlier work.
[9] abbreviates: individual ZA dogs 1-4, 0.05 mg ZA, 12 weeks.

`NCCC(O)(P(=O)(O)O)P(=O)(O)O` [pamidronate]: the “effect on disuse osteopenia and regenerate bone” value in the series on distraction osteogenesis (single postoperative intravenous dose of pamidronate (3 mg/kg)) was “decreased the disuse osteopenia normally associated with lengthening and increased the amount and density of the regenerate bone”.

Take `O=P(O)(O)C(O)(Cn1ccnc1)P(=O)(O)O` [ZA, zoledronic acid]: the “percent of the ZA released” value in series [1] (0.9% saline, after soaking for 6 weeks) is ~95%. Besides, the “percent of the ZA released” value in series [1] (0.9% saline, within 1 hour) is listed as “about 65%”. Besides, in series [1] (implants without HA coating compared to those with HA coating, 0.05 mg), the “release of zoledronic acid in saline (in words, FIG. 7)” value is “rapid and complete release”. The “time within which all of the ZA was released” value in [1] (non-HA coated porous tantalum implant dosed with 0.05 mg ZA, 0.9% saline) was ≤ 1 h. Besides, in series [2] (0.05 mg ZA, 12 weeks), the “more net bone growth into ZA-dosed implants compared with controls, relative” value is reported as 58%; the “peri-implant bone around ZA-dosed implants relative to controls” value was determined as 2.3 times; the “peri-implant bone on contact radiographs, ZA-dosed vs control implants (in words)” value is recorded as “almost always more dense and/or abundant”; the “relative difference in the size of the bone islands, ZA-dosed vs control” value is on record as 71%. The “Bone Island Size, overall Mean (95% CI)” value in series [2] (0.05 mg ZA, 12 weeks, 54 sections, 8 implants) is reported as 0.023 (0.016 to 0.031) mm^2. The “bone islands larger in the ZA-dosed implants than in controls, difference” value in series [2] (0.05 mg ZA, 12 weeks, 95% CI 0.001 to 0.017) amounted to 0.009 mm^2. In addition, in series [2] (0.05 mg ZA, 12 weeks, 95% CI 3.3 to 33.7), the “difference of the means of peri-implant bone filling, ZA-dosed vs control” value came out at 18.4%. In [2] (0.05 mg ZA, 12 weeks, 95% CI 3.5 to 11.1), the “difference in mean extent of bone ingrowth, ZA-dosed vs control” value was 7.3%. In addition, the “histologic evidence of cellular toxicity” value in series [2] (0.05 mg dose) is recorded as “without any histologic evidence of cellular toxicity”. Moreover, the “Peri-implant bone relative to intramedullary canal size, overall Mean (95% CI)” value in series [2] (HA coated implants dosed with 0.05 mg ZA, 12 weeks, 24 diaphyseal sections, 8 implants) is listed as 32.2 (21.7 to 43.0) %. Further, the “Mean extent of bone ingrowth, overall Mean (95% CI)” value in series [2] (HA coated implants dosed with 0.05 mg ZA, 12 weeks, 54 sections, 8 implants) is 19.8 (16.9 to 22.6) %. Besides, in series [2] (setting [9]), the “# Bone Islands, by dog” value is 109 and 155 and 206 and 131; the “Bone Island Size, by dog” value was 0.033 mm^2 and 0.016 mm^2 (2×) and 0.028 mm^2. Besides, in [2] (individual ZA dogs 1-4, HA coated implants dosed with 0.05 mg ZA, 12 weeks), the “Mean extent of bone ingrowth, by dog” value was 16.0% and 20.3% (2×) and 22.6%. In series [2] (individual ZA dogs 1-4, HA coated implants dosed with 0.05 mg ZA, 12 weeks, diaphyseal sections), the “Peri-implant bone relative to intramedullary canal size, by dog” value is 19.8% and 38.5% and 30.4% and 40.0%. Besides, the “bone formation on increasing the dosage of ZA” value in [2] (total ZA doses of 0.2 mg and 0.4 mg, relative to 0.05 mg) was “more bone formation around and within the implant”. In [2] (two HA coated implants dosed with 0.05 mg ZA per dog, 12 weeks), the “complications or systemic illness related to the ZA administration” value is listed as “No dogs had any complications or systemic illness”. Moreover, the “average bone island size larger in the ZA-treated group” value in [3] (0.1 mg/kg ZA intravenous) is recorded as 69%. For the same compound, the “relative difference in bone ingrowth, ZA-treated vs external control implants” value in series [3] (0.1 mg/kg ZA intravenous, statistically significant) was found to be 85%. For the same compound, in series [3] (single intravenous dose of 0.1 mg/kg ZA, 14 ulnar implants, own earlier published study), the “mean extent of bone ingrowth” value was 12.2%. The “kind of the additional bone formed at higher doses” value in [4] is reported as “woven bone”. In the series on bone resorption (Green 2001, Li and Davis 2003), the “potency relative to alendronate” value is recorded as 250 times and the “potency relative to pamidronate” value is 100 times. Moreover, the “potency at inhibiting bone resorption relative to second generation bisphosphonates (in words)” value in the series on bone resorption is “even more potent”. In series [5], the “concentration below which ZA can be considered safe for cellular activity” value is “below 10 μM”. The “concentration below which ZA can be considered safe for cellular activity” value in series [6] is reported as “below 10 μM”. The “effect on osteopenia and regenerate bone” value with distraction osteogenesis (one or two doses of ZA) is “abolished osteopenia and increased regenerate volume, mineralization and strength”. In addition, the bone formation rate result in the series on regenerate bone / callus is “reduced”.

For `O=P(O)(O)C(Cl)(Cl)P(=O)(O)O` [clodronate], the “effect on migration of knee prostheses” value in series [7] is “reduced migration of knee prostheses”.

As for `NCCCC(O)(P(=O)(O)O)P(=O)(O)O` [alendronate], the “effect on alveolar bone resorption” value in the series on alveolar bone resorption is given as “reduce alveolar bone resorption”. The “effect on soft tissue forming from resorptive remodeling due to repetitive implant motion” value in series [8] was “reduces the amount of soft tissue”.

Turning to `O=P(O)(O)C(O)(Cc1cccnc1)P(=O)(O)O` [risendronate], the “potency at inhibiting bone resorption relative to second generation bisphosphonates (in words)” value in the series with bone resorption was “even more potent”.

Turning to `CCCCCN(C)CCC(O)(P(=O)(O)O)P(=O)(O)O` [ibandronate], the “potency at inhibiting bone resorption relative to second generation bisphosphonates (in words)” value in the series on bone resorption was “even more potent”.
